Ends that are not written are not given here.
What was measured:
[1] = molecular target: BttxB (Clostridium botulinum, UniProt P10844); type: biochemical
[2] = rat, in vivo, ip
[3] = tested on: Bttxs; conditions: cited from earlier work

BttxB, sequence (P10844 2-441 limits assumed): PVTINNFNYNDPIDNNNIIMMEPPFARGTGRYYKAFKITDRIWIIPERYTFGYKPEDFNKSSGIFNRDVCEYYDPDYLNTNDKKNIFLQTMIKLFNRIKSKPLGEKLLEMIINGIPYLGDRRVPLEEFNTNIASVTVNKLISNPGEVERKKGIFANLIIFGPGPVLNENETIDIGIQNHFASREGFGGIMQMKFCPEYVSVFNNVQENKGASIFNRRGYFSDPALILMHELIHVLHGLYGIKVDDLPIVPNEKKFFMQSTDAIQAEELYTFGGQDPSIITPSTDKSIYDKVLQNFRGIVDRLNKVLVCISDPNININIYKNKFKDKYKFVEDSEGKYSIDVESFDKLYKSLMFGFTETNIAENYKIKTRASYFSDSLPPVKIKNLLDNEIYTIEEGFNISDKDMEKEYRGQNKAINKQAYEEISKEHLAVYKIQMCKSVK

Compound: CC(C)C[C@H](NC(=O)CNC(=O)[C@H](C)NC(=O)[C@H](CCCNC(=N)N)NC(=O)[C@H](CO)NC(=O)[C@H](CO)NC(=O)[C@H](CCCNC(=N)N)NC(=O)[C@@H](NC(=O)[C@H](CCCCN)NC(=O)[C@H](C)NC(=O)[C@H](CCCCN)NC(=O)[C@H](C)NC(=O)[C@H](CCCNC(=N)N)NC(=O)[C@@H](NC(=O)[C@H](CCCCN)NC(=O)CNC(=O)CNC(=O)[C@H](CCC(N)=O)NC(=O)[C@H](CCCCN)NC(=O)CNC(=O)[C@H](CCCNC(=N)N)NC(=O)CNC(=O)[C@H](C)N)C(C)C)[C@@H](C)O)C(=O)N[C@@H](CCC(N)=O)C(=O)N[C@@H](Cc1ccccc1)C(=O)N1CCC[C@H]1C(=O)N[C@H](C(=O)NCC(=O)N[C@@H](CCCNC(=N)N)C(=O)N[C@H](C(=O)N[C@@H](Cc1c[nH]cn1)C(=O)N[C@@H](CCCNC(=N)N)C(=O)N[C@@H](CC(C)C)C(=O)N[C@@H](CC(C)C)C(=O)N[C@@H](CCCNC(=N)N)C(=O)N[C@@H](CCCCN)C(=O)NCC(=O)N[C@@H](CC(N)=O)C(=O)N[C@@H](Cc1ccc(O)cc1)C(=O)O)C(C)C)C(C)C [Buforin I]
- inhibition of BttxB endoprotease activity (in words) [1]: dose-dependency and competitively inhibits
- substrate of BttxB [1]: not to be a substrate
- Plateau (time to reach maximal-plateau level) [2]: ≤ 40 min
- time the maximal-plateau level was maintained [2]: up to 4 h
- time to reach ½ the absorbed maximal value [2]: 7.7 min

Compound: C[C@H](CS)C(=O)N1CCC[C@H]1C(=O)O [captopril]
- inhibition of Bttxs (in words) [3]: not effective inhibitors

Compound: CC(C)C[C@H](NP(=O)(O)O[C@@H]1O[C@@H](C)[C@H](O)[C@@H](O)[C@H]1O)C(=O)N[C@@H](Cc1c[nH]c2ccccc12)C(=O)O [phosphoramidon]
- inhibition of Bttxs (in words) [3]: not effective inhibitors

Compound: AlaGlyArgGlyLysGlnGlyGlyLysValArgAlaLysAlaLysThrArgSerSerArgAlaGlyLeuGlnPheProValGlyArgValHisArgLeuLeuArglys [Peptide 36]
- effectiveness as inhibitor of BttxB activity relative to B-I [1]: about 50%
- substrate of BttxB [1]: not substrates

Compound: Substance P [reference compound]
- substrate of BttxB [1]: not a substrate

Compound: TRSRAKGLQFPGLLVHRKGNY [OSP]
- inhibition of BttxB endoprotease activity (in words) [1]: inhibition

Compound: ThrArgSerSerArgAlaGlyLeuGlnPheProValGlyArgValHisArgLerLeuArgLysGlyAsnTyr [Peptide 24]
- effectiveness as inhibitor of BttxB activity relative to B-I [1]: about 25%
- substrate of BttxB [1]: not substrates

From patent US6713444B1 (priority 1999, dated 2004)
